Calls of active or inactive are those of the source. No cut-off for these calls is given here.
Legend:
[1] = target: cAMP-dependent protein kinase catalytic subunit alpha (Homo sapiens) (UniProt P17612); experiment: Inhibition of DNA-tagged PKACalpha (unknown origin) expressed in HEK293 cells at 10 uM after 1 hr by real-time fluorescent quantitative PCR analysis; assay type: cell-based
[2] = test system: HT-29; experiment: Inhibition of colony formation in human HT-29 cells at <10 uM after 2 weeks by crystal violet staining-based assay; assay type: functional, cell-based
[3] = test system: HT-29; experiment: Cell cycle arrest in human HT-29 cells assessed as accumulation at G1 phase at 10 uM after 48 hrs by propidium iodide/RNase staining-based flow cytometric analysis (reference value: 62.1%); assay type: functional
[4] = target: Serine/threonine-protein kinase Chk2 (Homo sapiens) (UniProt O96017); experiment: Inhibition of DNA-tagged CHK2 (unknown origin) expressed in HEK293 cells at 10 uM after 1 hr by real-time fluorescent quantitative PCR analysis; assay type: cell-based
[5] = target: T1, Ephrin type-B receptor 4 (Homo sapiens) (UniProt P54760); experiment: Inhibition of DNA-tagged EPHB4 (unknown origin) expressed in HEK293 cells at 10 uM after 1 hr by real-time fluorescent quantitative PCR analysis; assay type: cell-based
T1 sequence (whole entry): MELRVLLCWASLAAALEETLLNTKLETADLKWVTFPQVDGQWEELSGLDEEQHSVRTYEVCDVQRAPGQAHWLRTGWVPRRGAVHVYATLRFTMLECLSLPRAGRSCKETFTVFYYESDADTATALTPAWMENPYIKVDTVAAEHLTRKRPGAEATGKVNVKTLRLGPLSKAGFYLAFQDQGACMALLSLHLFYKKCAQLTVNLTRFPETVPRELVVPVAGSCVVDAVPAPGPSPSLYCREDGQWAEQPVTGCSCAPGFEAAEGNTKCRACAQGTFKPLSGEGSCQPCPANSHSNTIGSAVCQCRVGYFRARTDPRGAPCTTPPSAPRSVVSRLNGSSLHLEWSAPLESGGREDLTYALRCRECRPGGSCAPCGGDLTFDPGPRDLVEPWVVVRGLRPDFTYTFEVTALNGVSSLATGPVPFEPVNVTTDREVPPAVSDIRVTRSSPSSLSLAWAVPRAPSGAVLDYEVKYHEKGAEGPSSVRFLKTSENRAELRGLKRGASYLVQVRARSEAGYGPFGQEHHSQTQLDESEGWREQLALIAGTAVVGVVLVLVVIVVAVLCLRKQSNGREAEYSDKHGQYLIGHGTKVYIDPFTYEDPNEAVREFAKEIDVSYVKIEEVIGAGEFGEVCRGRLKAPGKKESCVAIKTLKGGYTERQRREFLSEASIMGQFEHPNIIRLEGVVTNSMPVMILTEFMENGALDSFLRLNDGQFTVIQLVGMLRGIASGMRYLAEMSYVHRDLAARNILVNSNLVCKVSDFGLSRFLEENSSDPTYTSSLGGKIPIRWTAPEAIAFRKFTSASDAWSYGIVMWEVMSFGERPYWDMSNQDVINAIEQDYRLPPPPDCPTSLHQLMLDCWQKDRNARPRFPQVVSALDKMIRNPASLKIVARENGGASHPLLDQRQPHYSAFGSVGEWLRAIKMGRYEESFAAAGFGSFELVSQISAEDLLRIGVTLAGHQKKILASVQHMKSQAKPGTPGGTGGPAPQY

[6] = test system: HT-29; experiment: Cell cycle arrest in human HT-29 cells assessed as accumulation at S phase at 10 uM after 48 hrs by propidium iodide/RNase staining-based flow cytometric analysis (reference value: 30.9%); assay type: functional
[7] = test system: HT-29; experiment: Cell cycle arrest in human HT-29 cells assessed as accumulation at G2 phase at 10 uM after 48 hrs by propidium iodide/RNase staining-based flow cytometric analysis (reference value: 7.0%); assay type: functional
[8] = test system: HT-29; experiment: cells; conditions: Homo sapiens, HT-29, 72 h
Description: Antiproliferative activity against human HT-29 cells after 72 hrs by MTS assay

[9] = target: T2, Serine/threonine-protein kinase Chk1 (Homo sapiens) (UniProt O14757); experiment: Inhibition of DNA-tagged CHK1 (unknown origin) expressed in HEK293 cells at 10 uM after 1 hr by real-time fluorescent quantitative PCR analysis; assay type: cell-based
T2 sequence (whole entry): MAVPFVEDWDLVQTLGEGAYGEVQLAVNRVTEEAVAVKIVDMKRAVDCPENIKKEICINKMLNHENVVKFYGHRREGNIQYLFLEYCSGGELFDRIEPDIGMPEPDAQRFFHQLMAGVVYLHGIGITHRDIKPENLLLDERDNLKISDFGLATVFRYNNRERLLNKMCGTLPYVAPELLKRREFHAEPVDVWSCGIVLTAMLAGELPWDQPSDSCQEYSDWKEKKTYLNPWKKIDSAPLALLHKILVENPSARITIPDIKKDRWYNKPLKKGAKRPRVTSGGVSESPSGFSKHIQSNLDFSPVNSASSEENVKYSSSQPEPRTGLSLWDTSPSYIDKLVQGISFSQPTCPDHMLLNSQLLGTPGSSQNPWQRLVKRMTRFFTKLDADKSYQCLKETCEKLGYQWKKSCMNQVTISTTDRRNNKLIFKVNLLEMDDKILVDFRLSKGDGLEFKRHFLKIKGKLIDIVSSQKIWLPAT

[10] = test system: HEK293; experiment: Antiproliferative activity against human HEK293 cells after 72 hrs by MTS assay; assay type: functional; conditions: HEK293, 72 h
[11] = target: MAP kinase-activated protein kinase 2 (Homo sapiens) (UniProt P49137); experiment: Inhibition of DNA-tagged MAPKAPK2 (unknown origin) expressed in HEK293 cells at 10 uM after 1 hr by real-time fluorescent quantitative PCR analysis; assay type: cell-based
[12] = target: ALK tyrosine kinase receptor (Homo sapiens) (UniProt Q9UM73); experiment: Inhibition of DNA-tagged ALK (unknown origin) expressed in HEK293 cells at 10 uM after 1 hr by real-time fluorescent quantitative PCR analysis; assay type: cell-based
[13] = target: Mitogen-activated protein kinase 1 (Homo sapiens) (UniProt P28482); experiment: Inhibition of DNA-tagged MAPK1 (unknown origin) expressed in HEK293 cells at 10 uM after 1 hr by real-time fluorescent quantitative PCR analysis; assay type: cell-based
Sequence of Mitogen-activated protein kinase 1 (Homo sapiens) (P28482 whole entry): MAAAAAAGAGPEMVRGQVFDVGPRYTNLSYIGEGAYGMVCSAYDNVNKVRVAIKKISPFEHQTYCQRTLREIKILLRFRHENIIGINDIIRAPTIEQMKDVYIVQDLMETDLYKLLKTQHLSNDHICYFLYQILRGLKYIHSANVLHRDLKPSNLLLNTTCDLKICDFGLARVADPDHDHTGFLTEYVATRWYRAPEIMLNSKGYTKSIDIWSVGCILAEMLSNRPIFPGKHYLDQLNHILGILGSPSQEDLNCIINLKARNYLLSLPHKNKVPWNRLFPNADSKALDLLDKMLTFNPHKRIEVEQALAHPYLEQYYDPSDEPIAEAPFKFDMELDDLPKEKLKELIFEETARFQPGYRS

Sequence of ALK tyrosine kinase receptor (Homo sapiens) (Q9UM73 19-1620 limits assumed): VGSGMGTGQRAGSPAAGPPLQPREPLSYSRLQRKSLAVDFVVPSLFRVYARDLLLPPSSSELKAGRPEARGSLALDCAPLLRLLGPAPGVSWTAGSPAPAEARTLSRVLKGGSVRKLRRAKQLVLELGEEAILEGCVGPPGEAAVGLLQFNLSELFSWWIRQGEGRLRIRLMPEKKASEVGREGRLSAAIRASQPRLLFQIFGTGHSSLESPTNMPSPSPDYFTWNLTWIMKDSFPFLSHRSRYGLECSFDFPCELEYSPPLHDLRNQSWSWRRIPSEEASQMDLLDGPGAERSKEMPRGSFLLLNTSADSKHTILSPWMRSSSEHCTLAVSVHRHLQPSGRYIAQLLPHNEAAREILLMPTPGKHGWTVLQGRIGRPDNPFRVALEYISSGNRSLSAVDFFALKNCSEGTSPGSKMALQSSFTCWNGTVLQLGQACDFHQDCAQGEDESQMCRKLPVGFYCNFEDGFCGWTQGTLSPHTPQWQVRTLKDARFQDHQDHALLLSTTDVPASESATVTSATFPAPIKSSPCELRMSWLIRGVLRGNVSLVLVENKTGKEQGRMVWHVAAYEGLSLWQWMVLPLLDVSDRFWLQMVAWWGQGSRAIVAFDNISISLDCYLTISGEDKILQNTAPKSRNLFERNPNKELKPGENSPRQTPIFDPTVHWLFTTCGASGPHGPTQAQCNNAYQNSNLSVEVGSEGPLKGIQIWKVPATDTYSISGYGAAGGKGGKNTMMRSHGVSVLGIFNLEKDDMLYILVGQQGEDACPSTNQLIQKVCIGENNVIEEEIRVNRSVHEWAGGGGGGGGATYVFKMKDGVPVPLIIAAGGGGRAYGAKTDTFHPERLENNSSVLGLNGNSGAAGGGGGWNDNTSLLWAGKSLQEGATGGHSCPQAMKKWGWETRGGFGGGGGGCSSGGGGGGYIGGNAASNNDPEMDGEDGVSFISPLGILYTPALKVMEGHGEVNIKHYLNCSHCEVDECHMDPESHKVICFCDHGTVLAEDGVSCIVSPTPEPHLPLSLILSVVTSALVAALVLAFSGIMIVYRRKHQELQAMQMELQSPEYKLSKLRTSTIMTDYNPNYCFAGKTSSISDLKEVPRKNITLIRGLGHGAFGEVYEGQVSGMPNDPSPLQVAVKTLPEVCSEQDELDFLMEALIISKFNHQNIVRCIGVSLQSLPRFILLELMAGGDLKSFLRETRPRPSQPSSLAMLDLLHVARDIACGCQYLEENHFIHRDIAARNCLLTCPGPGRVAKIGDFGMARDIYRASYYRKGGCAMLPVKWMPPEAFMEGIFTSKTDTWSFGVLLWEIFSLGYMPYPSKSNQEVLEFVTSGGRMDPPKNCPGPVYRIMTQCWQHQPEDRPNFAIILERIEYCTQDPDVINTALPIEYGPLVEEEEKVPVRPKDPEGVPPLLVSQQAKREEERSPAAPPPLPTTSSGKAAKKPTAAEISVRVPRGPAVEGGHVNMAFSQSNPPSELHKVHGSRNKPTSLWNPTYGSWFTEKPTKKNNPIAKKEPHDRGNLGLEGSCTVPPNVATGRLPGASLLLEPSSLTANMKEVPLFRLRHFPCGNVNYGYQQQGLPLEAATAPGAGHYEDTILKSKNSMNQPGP
Sequence of Serine/threonine-protein kinase Chk2 (Homo sapiens) (O96017 whole entry): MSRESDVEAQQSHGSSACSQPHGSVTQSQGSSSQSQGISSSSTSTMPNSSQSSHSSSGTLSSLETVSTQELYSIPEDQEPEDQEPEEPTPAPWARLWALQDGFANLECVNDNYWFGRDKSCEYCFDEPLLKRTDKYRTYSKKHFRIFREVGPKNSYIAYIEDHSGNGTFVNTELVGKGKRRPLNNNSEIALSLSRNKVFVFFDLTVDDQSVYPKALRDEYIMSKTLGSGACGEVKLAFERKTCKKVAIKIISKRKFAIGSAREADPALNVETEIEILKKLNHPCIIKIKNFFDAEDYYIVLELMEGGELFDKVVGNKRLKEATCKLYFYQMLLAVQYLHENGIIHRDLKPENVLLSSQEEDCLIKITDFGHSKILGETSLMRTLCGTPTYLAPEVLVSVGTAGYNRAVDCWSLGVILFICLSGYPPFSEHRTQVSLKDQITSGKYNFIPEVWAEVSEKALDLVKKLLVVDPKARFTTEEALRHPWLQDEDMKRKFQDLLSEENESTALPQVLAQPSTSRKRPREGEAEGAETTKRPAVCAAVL
Sequence of MAP kinase-activated protein kinase 2 (Homo sapiens) (P49137 whole entry, looked up): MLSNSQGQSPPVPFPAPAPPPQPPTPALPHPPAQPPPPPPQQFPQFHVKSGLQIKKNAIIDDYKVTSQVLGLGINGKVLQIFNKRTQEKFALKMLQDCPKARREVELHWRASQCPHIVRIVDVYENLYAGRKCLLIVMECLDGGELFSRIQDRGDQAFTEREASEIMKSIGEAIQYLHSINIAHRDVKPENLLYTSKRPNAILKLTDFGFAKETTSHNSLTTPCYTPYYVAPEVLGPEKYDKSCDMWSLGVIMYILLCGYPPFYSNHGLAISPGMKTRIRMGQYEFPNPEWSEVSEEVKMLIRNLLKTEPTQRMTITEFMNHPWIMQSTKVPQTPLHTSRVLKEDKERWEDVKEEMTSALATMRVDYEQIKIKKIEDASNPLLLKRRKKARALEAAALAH

Compound: Fc1ccc(Nc2nc(N3CCOCC3)c3nc[nH]c3n2)cc1
- inhibition [1]: 0%
- inhibition [2]: inactive
- Activity [3]: 60%
- inhibition [4]: 72%
- inhibition [5]: 23%
- Activity [6]: 29.5%
- Activity [7]: 10.5%
- GI50 [8]: > 100 µM
- inhibition [9]: 89.9%
- GI50 [10]: > 100 µM
- inhibition [11]: 18%
- inhibition [12]: 1%
- inhibition [13]: 33%
